Assays:
Assay type in all cases: in vivo
[1] = test system: blackgrass (Alopecurus myosuroides); assay: Test C pre-/postemergence greenhouse test, plant response rating 0-100
Summary of the method: (§1)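 Visual rating vs controls after 13–15 d greenhouse; 0 = no effect, 100 = complete control. Pre: seeds in loam/sand, treated at planting. Post: seedlings 2–18 cm (1–4 leaf) in peat-based mix. Compounds in surfactant-containing non-phytotoxic solvent.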

corn (Zea mays) = assay: as above
Summary of the method: as §1

[2] = test system: giant foxtail (Setaria faberii); assay: as above
Summary of the method: as §1

[3] = test system: johnsongrass (Sorghum halepense); assay: as above
Summary of the method: as §1

[4] = test system: lambsquarters (Chenopodium album); assay: as above
Summary of the method: as §1

[5] = test system: large (Lg) crabgrass (Digitaria sanguinalis); assay: as above
Summary of the method: as §1

[6] = test system: oilseed rape (Brassica napus); assay: as above
Summary of the method: as §1

[7] = test system: pigweed (Amaranthus retroflexus); assay: as above
Summary of the method: as §1

soybean (Glycine max) = assay: as above
Summary of the method: as §1

[8] = test system: winter wheat (Triticum aestivum); assay: as above
Summary of the method: as §1

[9] = test system: yellow nutsedge (Cyperus esculentus); assay: as above
Summary of the method: as §1

[10] = test system: chickweed (common chickweed, Stellaria media); assay: Test C postemergence greenhouse test, plant response rating 0-100
Summary of the method: (§2)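 Postemergence spray onto 1–4-leaf potted seedlings, greenhouse incubation 13–15 days. Visual percent-control rating (0–100) against untreated plants.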

kochia (Kochia scoparia) = assay: as above
Summary of the method: as §2

wild oat (Avena fatua) = assay: as above
Summary of the method: as §2

[11] = Postemergence, 250 g ai/ha, scale 0 to 100

O=C(c1cncc(F)c1)c1c[nH]nc1-c1cc(Cl)cc(Cl)c1 [Compound 19]
Plant response rating (0 to 100), Blackgrass ([1]; Postemergence, 31 g ai/ha): 0
Plant response rating (0 to 100), Blackgrass ([1]; Postemergence, 62 g ai/ha): 0
Plant response rating, Blackgrass ([1]; Postemergence, 125 g ai/ha, scale 0 to 100): 0
Plant response rating, Blackgrass [1, 11]: 0
Plant response rating, Blackgrass ([1]; Preemergence, 31 g ai/ha): 10
Plant response rating, Blackgrass ([1]; Preemergence, 62 g ai/ha): 0
Plant response rating, Blackgrass ([1]; Preemergence, 125 g ai/ha): 0
Plant response rating, Blackgrass ([1]; Preemergence, 250 g ai/ha): 50
Plant response rating (0 to 100), Corn (corn (Zea mays); Postemergence, 31 g ai/ha): 0
Plant response rating (0 to 100), Corn (corn (Zea mays); Postemergence, 62 g ai/ha): 0
Plant response rating (0 to 100), Corn (corn (Zea mays); Postemergence, 125 g ai/ha): 0
Plant response rating, Corn (corn (Zea mays); [11]): 0
Plant response rating, Corn (corn (Zea mays); Preemergence, 31 g ai/ha): 0
Plant response rating, Corn (corn (Zea mays); Preemergence, 62 g ai/ha): 0
Plant response rating, Corn (corn (Zea mays); Preemergence, 125 g ai/ha): 0
Plant response rating, Corn (corn (Zea mays); Preemergence, 250 g ai/ha): 0
Plant response rating (0 to 100), Foxtail, Giant ([2]; Postemergence, 31 g ai/ha): 0
Plant response rating (0 to 100), Foxtail, Giant ([2]; Postemergence, 62 g ai/ha): 0
Plant response rating (0 to 100), Foxtail, Giant ([2]; Postemergence, 125 g ai/ha): 5
Plant response rating, Foxtail, Giant [2, 11]: 5
Plant response rating, Foxtail, Giant ([2]; Preemergence, 31 g ai/ha): 0
Plant response rating, Foxtail, Giant ([2]; Preemergence, 62 g ai/ha): 0
Plant response rating, Foxtail, Giant ([2]; Preemergence, 125 g ai/ha): 0
Plant response rating, Foxtail, Giant ([2]; Preemergence, 250 g ai/ha): 0
Plant response rating (0 to 100), Johnsongrass ([3]; Postemergence, 62 g ai/ha): 0
Plant response rating (0 to 100), Johnsongrass ([3]; Postemergence, 125 g ai/ha): 0
Plant response rating, Johnsongrass [3, 11]: 0
Plant response rating, Johnsongrass ([3]; Preemergence, 31 g ai/ha): 0
Plant response rating, Johnsongrass ([3]; Preemergence, 62 g ai/ha): 0
Plant response rating, Johnsongrass ([3]; Preemergence, 125 g ai/ha): 0
Plant response rating, Johnsongrass ([3]; Preemergence, 250 g ai/ha): 0
Plant response rating (0 to 100), Lambsquarters ([4]; Postemergence, 62 g ai/ha): 10
Plant response rating (0 to 100), Lambsquarters ([4]; Postemergence, 125 g ai/ha): 15
Plant response rating, Lambsquarters [4, 11]: 10
Plant response rating, Lambsquarters ([4]; Preemergence, 31 g ai/ha): 100
Plant response rating, Lambsquarters ([4]; Preemergence, 62 g ai/ha): 100
Plant response rating, Lambsquarters ([4]; Preemergence, 125 g ai/ha): 100
Plant response rating, Lambsquarters ([4]; Preemergence, 250 g ai/ha): 100
Plant response rating (0 to 100), Crabgrass, Large ([5]; Postemergence, 31 g ai/ha): 0
Plant response rating (0 to 100), Crabgrass, Large ([5]; Postemergence, 62 g ai/ha): 0
Plant response rating (0 to 100), Crabgrass, Large ([5]; Postemergence, 125 g ai/ha): 10
Plant response rating, Crabgrass, Large [5, 11]: 10
Plant response rating, Crabgrass, Large ([5]; Preemergence, 31 g ai/ha): 0
Plant response rating, Crabgrass, Large ([5]; Preemergence, 62 g ai/ha): 0
Plant response rating, Crabgrass, Large ([5]; Preemergence, 125 g ai/ha): 0
Plant response rating, Crabgrass, Large ([5]; Preemergence, 250 g ai/ha): 0
Plant response rating (0 to 100), Oilseed Rape ([6]; Postemergence, 62 g ai/ha): 0
Plant response rating (0 to 100), Oilseed Rape ([6]; Postemergence, 125 g ai/ha): 0
Plant response rating, Oilseed Rape [6, 11]: 5
Plant response rating, Oilseed Rape ([6]; Preemergence, 31 g ai/ha): 0
Plant response rating, Oilseed Rape ([6]; Preemergence, 62 g ai/ha): 0
Plant response rating, Oilseed Rape ([6]; Preemergence, 125 g ai/ha): 80
Plant response rating, Oilseed Rape ([6]; Preemergence, 250 g ai/ha): 80
Plant response rating (0 to 100), Pigweed ([7]; Postemergence, 62 g ai/ha): 85
Plant response rating (0 to 100), Pigweed ([7]; Postemergence, 125 g ai/ha): 90
Plant response rating, Pigweed [7, 11]: 95
Plant response rating, Pigweed ([7]; Preemergence, 31 g ai/ha): 75
Plant response rating, Pigweed ([7]; Preemergence, 62 g ai/ha): 85
Plant response rating, Pigweed ([7]; Preemergence, 125 g ai/ha): 100
Plant response rating, Pigweed ([7]; Preemergence, 250 g ai/ha): 100
Plant response rating (0 to 100), Soybean (soybean (Glycine max); Postemergence, 62 g ai/ha): 0
Plant response rating (0 to 100), Soybean (soybean (Glycine max); Postemergence, 125 g ai/ha): 0
Plant response rating, Soybean (soybean (Glycine max); [11]): 0
Plant response rating, Soybean (soybean (Glycine max); Preemergence, 62 g ai/ha): 0
Plant response rating, Soybean (soybean (Glycine max); Preemergence, 125 g ai/ha): 0
Plant response rating, Soybean (soybean (Glycine max); Preemergence, 250 g ai/ha): 85
Plant response rating (0 to 100), Wheat ([8]; Postemergence, 62 g ai/ha): 0
Plant response rating (0 to 100), Wheat ([8]; Postemergence, 125 g ai/ha): 0
Plant response rating, Wheat [8, 11]: 0
Plant response rating, Wheat ([8]; Preemergence, 62 g ai/ha): 0
Plant response rating, Wheat ([8]; Preemergence, 125 g ai/ha): 0
Plant response rating, Wheat ([8]; Preemergence, 250 g ai/ha): 0
Plant response rating (0 to 100), Nutsedge, Yellow ([9]; Postemergence, 62 g ai/ha): 5
Plant response rating (0 to 100), Nutsedge, Yellow ([9]; Postemergence, 125 g ai/ha): 5
Plant response rating, Nutsedge, Yellow [9, 11]: 5
Plant response rating, Nutsedge, Yellow ([9]; Preemergence, 31 g ai/ha): 0
Plant response rating, Nutsedge, Yellow ([9]; Preemergence, 62 g ai/ha): 0
Plant response rating, Nutsedge, Yellow ([9]; Preemergence, 125 g ai/ha): 0
Plant response rating, Nutsedge, Yellow ([9]; Preemergence, 250 g ai/ha): 0
Plant response rating (0 to 100), Chickweed ([10]; 31 g ai/ha): 95
Plant response rating (0 to 100), Chickweed ([10]; 62 g ai/ha): 80
Plant response rating (0 to 100), Chickweed ([10]; 125 g ai/ha): 98
Plant response rating, Chickweed ([10]; 250 g ai/ha, scale 0 to 100): 98
Plant response rating (0 to 100), Kochia (kochia (Kochia scoparia); 62 g ai/ha): 80
Plant response rating (0 to 100), Kochia (kochia (Kochia scoparia); 125 g ai/ha): 85
Plant response rating, Kochia (kochia (Kochia scoparia); 250 g ai/ha, scale 0 to 100): 90
Plant response rating (0 to 100), Oat, Wild (wild oat (Avena fatua); 62 g ai/ha): 0
Plant response rating (0 to 100), Oat, Wild (wild oat (Avena fatua); 125 g ai/ha): 0
Plant response rating, Oat, Wild (wild oat (Avena fatua); 250 g ai/ha, scale 0 to 100): 0

— patent US10167262B2, “Herbicidal substituted 3-arylpyrazoles” (FMC CORPORATION, priority 2014, dated 2019)
